Results reported in article PMC2888773 (Cellular microbiology, 2010).

Target: Ov-CF-1 (cathepsin F) (Opisthorchis viverrini, UniProt Q5PXS3)
Assay: fluorogenic release of NHMec
Format: biochemical
Conditions: autoactivation at pH 4.5, 37 °C, 1 mM DTT, 1 mM EDTA

How did the “fluorogenic release of NHMec (ex 380 / em 460 nm)” value turn out when `Cc1cc(=O)oc2cc(NC(=O)[C@H](CCCNC(=N)N)NC(=O)[C@H](CC(C)C)NC(=O)OCc3ccccc3)ccc12` [Z-Leu-Arg-NHMec] was run?
The value was “The rate of hydrolysis of Z-Leu-Arg-NHMec”.
